Results published in patent publication EP4725956A1, “MODIFIED POLYPEPTIDE AND USE THEREOF IN FIELD OF ANALGESIA” (Nanjing Anji Biotechnology Co., Ltd., priority 2023, dated 2024).
Positions of bridges follow the written chain, without caps; N, C: chain ends. Non-standard residues stand in square brackets, D forms with d. Residues, ends and D or L forms follow the SMILES beside them. Hyp = O=C(O)[C@@H]1C[C@@H](O)CN1; Nle = CCCC[C@H](N)C(=O)O; Orn = NCCC[C@H](N)C(=O)O

Key:
[1] = system: rat paclitaxel-induced chronic chemotherapy pain model; test: Rat paclitaxel chemotherapy pain model, same dose (Example 5); type: in vivo; conditions: for analgesic activity compared with the model group (mechanical pain threshold): four rounds of treatment
Method: Male SPF (Specific Pathogen Free) SD rats weighing 180-200 g (Shanghai Institute of Planned Parenthood Research, Experimental Animal Department) were used. On the day of model induction, rats were weighed, and baseline mechanical pain thresholds were measured. Animals with large differences in body weight or pain threshold were excluded, and the remaining rats were subjected to the experimental protocol. Paclitaxel powder was dissolved in olive oil to 1 mg/mL. Each rat received an intraperitoneal injection of 2 mg/kg per dose. Four injections were administered on days 1, 3, 5, and 7. Rats in the negative control or vehicle control group received injections of the solvent used to dissolve paclitaxel. […] The blank group in Table 4 represents rats without pain modeling, and the model group represents rats with pain modeling but no drug treatment. On days 1, 3, 5, and 12, drugs were administered at fixed times. On days 1, 3, and 5, mechanical pain thresholds of the right hind paw at the corresponding time were measured at 1 h, 2.5 h, 4 h, and 5.5 h after dosing using a blunt probe. On day 12, mechanical pain thresholds were measured at 4 h and 7 h after dosing. […] AJ003-36 and AJ003-40 were thus identified as candidate molecules for further study. Paclitaxel is a widely used small-molecule chemotherapy drug that, while effective against tumors, can induce neuropathic pain in many cancer patients due to neurotoxicity. The chronic chemotherapy pain model induced in male SD rats via multiple low-dose intraperitoneal injections of paclitaxel simulates clinical chemotherapy-induced neuropathic pain. Using this model, the analgesic effects of five modified peptides, the parent peptide AJ003, and the positive control pregabalin were evaluated. […] Table 4 Dosing Scheme for Screening Analgesic Activity of Selected Modified Peptides at the Same Dose in the Paclitaxel Chemotherapy Pain Model

[2] = system: rat paclitaxel-induced chronic chemotherapy pain model; test: Rat paclitaxel chemotherapy pain model, different doses (Example 6); type: in vivo; conditions: for analgesic activity compared with the model group (mechanical pain threshold): 1 mg/kg s.c., five rounds of treatment
Method: Male SPF (Specific Pathogen Free) SD rats weighing 180-200 g (Shanghai Institute of Planned Parenthood Research, Experimental Animal Department) were purchased and allowed to acclimate for approximately one week. On the day of model induction, rats were weighed, and baseline mechanical pain thresholds were measured. Animals with large differences in body weight or pain threshold were excluded, and the remaining rats were subjected to the experimental protocol. Paclitaxel powder was dissolved in olive oil to 1 mg/mL. Each rat received an intraperitoneal injection of 2 mg/kg per dose. Four injections were administered on days 1, 3, 5, and 7. Rats in the negative control or vehicle control group received injections of the solvent used to dissolve paclitaxel. […] Starting from day 15 after model induction, drugs were administered daily for consecutive days. On days 1, 4, 7, 12, and 14 of treatment, mechanical pain thresholds of the right hind paw at the corresponding time were measured at 2 h, 4 h, 6 h, and 8 h after dosing using a blunt probe. […]. […] Table 5 Dosing Scheme for Screening Analgesic Activity of Selected Modified Peptides at Different Doses in the Paclitaxel Chemotherapy Pain Model

[3] = system: mouse diabetic neuropathic pain model; test: Mouse diabetic neuropathic pain model (Example 10); type: in vivo; conditions: 2 mg/kg s.c. (AJ003; AJ003-36 medium dose)
Method: Except for the control group, the remaining male C57 mice (Hangzhou Ziyuan Experimental Animal Technology Co., Ltd.) were continuously fed a high-sugar, high-fat diet for approximately ten weeks. For the model group, mice were fasted overnight, and streptozotocin (STZ) (Sann Chemical Technology (Shanghai) Co., Ltd.) was dissolved in sodium citrate-citric acid buffer solution and intraperitoneally injected at a dose of 70 mg/kg. About two weeks after STZ injection, the mechanical pain threshold of mice was measured. Mice were placed on a perforated wire mesh for adaptation, and the plantar surface of the right hind paw was vertically stimulated with a blunt needle. Pain threshold data were collected using a biosignal acquisition system. Each mouse was measured three times, and the average value was calculated. Mice were then randomly assigned to groups based on their pain thresholds for drug administration.
Day 1 of dosing: Drug administration was performed according to Table 9. Mechanical pain thresholds of the plantar surface were measured at 0 h, 2 h, 4 h, 6 h, and 8 h after administration.

α7 nAChR = α7 nAChR (Homo sapiens, UniProt P36544); test: BLI (biolayer interferometry) affinity of peptides to α7 nAChR; type: binding; design: inferred from the 'similar' procedure on NTA sensors; conditions: NTA sensor, α7 nAChR 20 µg/mL, peptide 1.372-1000 nM in PBS
How it was run: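 Target protein immobilised on NTA biosensors from PBS at 5 µg/mL (α9) or 20 µg/mL (α7). Peptides run in PBS as threefold series from 1000 nM to 1.372 nM with a PBS blank, 5-minute association and 5-minute dissociation; KD from fitted ka and kd.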

Structure (SMILES) | analgesic activity compared with the model group (mechanical pain threshold) ([1]; 1 mg/kg s.c., beyond 4 h after dosing) | analgesic activity compared with the model group (mechanical pain threshold) ([1]; 1 mg/kg s.c., within 4 h after dosing) | analgesic activity compared with the model group (mechanical pain threshold) ([2]; beyond 4 h after dosing) | analgesic activity compared with the model group (mechanical pain threshold) ([2]; within 4 h after dosing) | analgesic activity compared with the model group (mechanical pain threshold) ([3]; Day 1 of dosing, 2 h and 4 h) | analgesic activity compared with the model group (mechanical pain threshold) ([3]; Day 1 of dosing, 6 h and 8 h) | analgesic activity compared with the model group (mechanical pain threshold) ([3]; Day 4 of dosing, 2 h and 4 h) | analgesic activity compared with the model group (mechanical pain threshold) ([3]; Day 4 of dosing, 6 h and 8 h) | analgesic activity compared with the model group (mechanical pain threshold) ([3]; Day 8 of dosing, 2 h and 4 h) | analgesic activity compared with the model group (mechanical pain threshold) ([3]; Day 8 of dosing, 6 h and 8 h) | analgesic activity compared with the model group (mechanical pain threshold) ([3]; Day 14 of dosing, 2 h and 4 h) | analgesic activity compared with the model group (mechanical pain threshold) ([3]; Day 14 of dosing, 6 h and 8 h) | Kd (α7 nAChR) [nM] | ranking among the five candidate modified peptides ([1]; 1 mg/kg s.c.) | analgesic activity (mechanical pain threshold) ([1]; 1 mg/kg s.c., day 12, 7 h after dosing) | analgesic efficacy compared with the positive control pregabalin ([1]; peptide 1 mg/kg s.c. vs pregabalin 30 mg/kg oral gavage, overall) | analgesic activity compared with the positive control pregabalin ([2]; high dose 1.5 mg/kg s.c. vs pregabalin 30 mg/kg oral gavage) | analgesic effect compared with the model group (mechanical pain threshold) ([2]; high dose 1.5 mg/kg s.c., 8 h after dosing) | analgesic activity compared with the parent peptide AJ003 ([2]; low dose 0.5 mg/kg s.c. vs AJ003 1 mg/kg s.c.)
CC(C)C[C@H](NC(=O)[C@@H](NC(=O)[C@H]1CSSC[C@H](NC(=O)[C@H](CO)NC(=O)CN)C(=O)N[C@@H](CO)C(=O)N[C@@H]([C@@H](C)O)C(=O)N2CCC[C@H]2C(=O)N2CCC[C@H]2C(=O)N[C@@H](CO)C(=O)N1)C(C)C)C(=O)N[C@@H](Cc1ccc(O)cc1)C(=O)N[C@@H](CO)C(=O)O [AJ003, GSCSTPPS-(D-Cys)-VLYS (disulfide bond between positions 3 and 9)] (H-GSCSTPPS[dC]VLYS-OH; disulfide 3-9) | no significant analgesic effect | significant analgesic activity | no significant effect | significant analgesic activity | significant analgesic activity | did not show significant differences | significant analgesic activity | no significant difference | significant analgesic activity | no significant difference | significant analgesic activity | did not show significant differences | 223 | – | – | – | – | – | –
CCCC[C@H](NC(=O)[C@@H](NC(=O)[C@H]1CSSC[C@H](NC(=O)[C@H](CO)NC(=O)CN)C(=O)N[C@@H](CO)C(=O)N[C@H]([C@H](C)O)C(=O)N2C[C@H](O)C[C@H]2C(=O)N2C[C@H](O)C[C@H]2C(=O)N[C@@H](CO)C(=O)N1)C(C)C)C(=O)N[C@@H](Cc1c[nH]c2ccccc12)C(=O)N[C@@H](CCCN)C(N)=O [AJ003-40, GSCS-(D-Thr)-Hyp-Hyp-S-(D-Cys)-V-Nle-W-Orn-NH2 (3,9 disulfide bond)] (H-GSCS[dT][Hyp][Hyp]S[dC]V[Nle]W[Orn]-NH2; disulfide 3-9) | – | – | – | – | – | – | – | – | – | – | – | – | 46.5 | top three analgesic candidates | prolonged analgesic activity lasting up to 7 h | comparable in analgesic efficacy to pregabalin | slightly superior to the positive control pregabalin | remained significant | comparable to that of AJ003 at 1 mg/kg
